Several values for one entry are separate records, joined by “and”; a condition that tells them apart may be missing. Equal values may be shown once. Inconclusive results and toxic doses are left out. How the source made its calls: active means survival T/C of 150% or more; inactive means T/C below 125% in these data. Peptide text beside a SMILES is read from it. * marks the point of attachment. Cbz = O=C(OCc1ccccc1)*
System: P388 leukemia ip, CD2F1 mice, survival T/C
Assay: NCI In Vivo Anticancer Drug Screen. Data for tumor model P388 Leukemia (intraperitoneal) in CD2F1 (CDF1) mice
Conditions: endpoint: median survival time, higher = longer survival
Summary of the method: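 Mice carrying the transplanted tumor received test compound or vehicle. Survival was recorded in each group, and the value is the treated-group measurement divided by that of the vehicle-treated control group.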

[1] = dose: 50.0 mg/kg/injection, schedule: Q01DX005 (ip), vehicle: saline
[2] = dose: 100.0 mg/kg/injection, schedule: Q01DX005 (ip), vehicle: saline
[3] = dose: 200.0 mg/kg/injection, schedule: Q01DX005 (ip), vehicle: saline
[4] = dose: 50.0 mg/kg/injection, schedule: Q01DX005 (ip), vehicle: Klucel (hydroxypropylcellulose) (HPC)
[5] = dose: 100.0 mg/kg/injection, schedule: Q01DX005 (ip), vehicle: Klucel (hydroxypropylcellulose) (HPC)
[6] = dose: 50.0 mg/kg/injection, schedule: Q01DX009 (ip), vehicle: saline
[7] = dose: 100.0 mg/kg/injection, schedule: Q01DX009 (ip), vehicle: saline
[8] = dose: 200.0 mg/kg/injection, schedule: Q01DX009 (ip), vehicle: saline
[9] = dose: 50.0 mg/kg/injection, schedule: Q01DX009 (ip), vehicle: saline with Tween-80
[10] = dose: 100.0 mg/kg/injection, schedule: Q01DX009 (ip), vehicle: saline with Tween-80
[11] = dose: 200.0 mg/kg/injection, schedule: Q01DX009 (ip), vehicle: saline with Tween-80
[12] = dose: 50.0 mg/kg/injection, schedule: Q01DX005 (ip), vehicle: saline with Tween-80
[13] = dose: 100.0 mg/kg/injection, schedule: Q01DX005 (ip), vehicle: saline with Tween-80
[14] = dose: 200.0 mg/kg/injection, schedule: Q01DX005 (ip), vehicle: saline with Tween-80
[15] = dose: 100.0 mg/kg/injection, schedule: Q04DX002 (ip), vehicle: saline with Tween-80
[16] = dose: 200.0 mg/kg/injection, schedule: Q04DX002 (ip), vehicle: saline with Tween-80
[17] = dose: 50.0 mg/kg/injection, schedule: Q01DX009 (ip), vehicle: other
[18] = dose: 100.0 mg/kg/injection, schedule: Q01DX009 (ip), vehicle: other
[19] = dose: 200.0 mg/kg/injection, schedule: Q01DX009 (ip), vehicle: other
[20] = dose: 100.0 mg/kg/injection, schedule: Q01DX009 (ip), vehicle: Klucel (hydroxypropylcellulose) (HPC)
[21] = dose: 200.0 mg/kg/injection, schedule: Q01DX009 (ip), vehicle: Klucel (hydroxypropylcellulose) (HPC)

Measured: T/C

CNc1c([N+](=O)[O-])cc2[nH]c(C)nc2c1[N+](=O)[O-]
inactive: dose: 6.25 mg/kg/injection, schedule: Q04DX003 (ip), vehicle: saline with Tween-80 103 % of control | dose: 12.5 mg/kg/injection, schedule: Q04DX003 (ip), vehicle: saline with Tween-80 113 % of control | dose: 25.0 mg/kg/injection, schedule: Q04DX003 (ip), vehicle: saline with Tween-80 99 % of control and 92 % of control

COC(=O)C1CCCN1C(=O)C(CCCCNC(=O)OCc1ccccc1)NC(=O)OCc1ccccc1 (stereo not drawn) (Cbz-Lys(Cbz)-Pro-OMe; configuration not given here)
inactive: [1] 106 % of control | [2] 103 % of control | [3] 105 % of control

CC1(C)C(=O)/C(=C/c2ccccc2N)Cc2ccccc21
inactive: [4] 90 % of control | [5] 107 % of control | dose: 200.0 mg/kg/injection, schedule: Q01DX005 (ip), vehicle: Klucel (hydroxypropylcellulose) (HPC) 102 % of control

NCCc1ccc(N)cc1
inactive: [6] 100 % of control and 105 % of control | [7] 100 % of control and 96 % of control | [8] 86 % of control

CCN(CC)CCOC(=O)c1c[nH]c2ccccc12
inactive: dose: 6.25 mg/kg/injection, schedule: Q01DX005 (ip), vehicle: Klucel (hydroxypropylcellulose) (HPC) 100 % of control | dose: 12.5 mg/kg/injection, schedule: Q01DX005 (ip), vehicle: Klucel (hydroxypropylcellulose) (HPC) 105 % of control | dose: 25.0 mg/kg/injection, schedule: Q01DX005 (ip), vehicle: Klucel (hydroxypropylcellulose) (HPC) 105 % of control | [4] 98 % of control and 95 % of control | [5] 100 % of control

Cc1ccc(NC(=O)Nc2ncn[nH]2)c(C)c1
inactive: [9] 107 % of control | [10] 100 % of control | [11] 107 % of control

O=C(O)c1ccc([N+](=O)[O-])cc1O.O=C(O)c1ccc([N+](=O)[O-])cc1O.[Cu]
inactive: dose: 6.25 mg/kg/injection, schedule: Q01DX001 (ip), vehicle: saline with Tween-80 100 % of control | dose: 12.5 mg/kg/injection, schedule: Q01DX001 (ip), vehicle: saline with Tween-80 103 % of control | dose: 25.0 mg/kg/injection, schedule: Q01DX001 (ip), vehicle: saline with Tween-80 97 % of control

CCc1[nH]c2ccccc2c1C(=O)c1ccncc1
inactive: dose: 100.0 mg/kg/injection, schedule: Q04DX003 (ip), vehicle: suspension in saline 103 % of control | dose: 200.0 mg/kg/injection, schedule: Q04DX003 (ip), vehicle: suspension in saline 101 % of control | dose: 400.0 mg/kg/injection, schedule: Q04DX003 (ip), vehicle: suspension in saline 108 % of control

CCOc1ccc(Nc2ncnc3sc4c(c23)CCCC4)cc1
inactive: [12] 100 % of control | [13] 102 % of control | [14] 109 % of control

CC(=O)N(OS(C)(=O)=O)C1CCCCC1
inactive: dose: 50.0 mg/kg/injection, schedule: Q01DX007 (ip), vehicle: saline with Tween-80 92 % of control | dose: 100.0 mg/kg/injection, schedule: Q01DX007 (ip), vehicle: saline with Tween-80 100 % of control | dose: 200.0 mg/kg/injection, schedule: Q01DX007 (ip), vehicle: saline with Tween-80 90 % of control

C[n+]1c(/C=C/c2ccc(N3CCCC3)cc2)sc2ccccc21
inactive: dose: 0.79 mg/kg/injection, schedule: Q01DX009 (ip), vehicle: saline 105 % of control | dose: 1.56 mg/kg/injection, schedule: Q01DX009 (ip), vehicle: saline 95 % of control | dose: 3.12 mg/kg/injection, schedule: Q01DX009 (ip), vehicle: saline 106 % of control and 117 % of control | dose: 6.25 mg/kg/injection, schedule: Q01DX009 (ip), vehicle: saline 108 % of control

CN(C)P1(=O)OCC(C(C)(C)C)CN1c1ccccc1 (stereo not drawn)
inactive: dose: 100.0 mg/kg/injection, schedule: Q04DX003 (ip), vehicle: Klucel (hydroxypropylcellulose) (HPC) 97 % of control | dose: 200.0 mg/kg/injection, schedule: Q04DX003 (ip), vehicle: Klucel (hydroxypropylcellulose) (HPC) 97 % of control

O=C1C(C(=NC2CCCCC2)c2ccccc2)=C(O)c2ccccc21
inactive: [15] 104 % of control | [16] 100 % of control

CC(O)c1nc2ncc(Br)cc2[nH]1 (stereo not drawn)
inactive: dose: 100.0 mg/kg/injection, schedule: Q01DX001 (ip), vehicle: saline with Tween-80 93 % of control | dose: 200.0 mg/kg/injection, schedule: Q01DX001 (ip), vehicle: saline with Tween-80 99 % of control | dose: 400.0 mg/kg/injection, schedule: Q01DX001 (ip), vehicle: saline with Tween-80 101 % of control

COc1ccc(C2[C@H](C(=O)O)c3ccccc3C(=O)N2Cc2ccccc2)cc1 (stereo partly drawn)
inactive: [15] 101 % of control | [16] 104 % of control | dose: 400.0 mg/kg/injection, schedule: Q04DX002 (ip), vehicle: saline with Tween-80 103 % of control

CCCCN(CCCC)CC(O)c1cc2c(Cl)cc(Cl)cc2c2cc(C(F)(F)F)ccc12 (stereo not drawn)
inactive: [9] 97 % of control | [10] 100 % of control | [11] 100 % of control

c1cncc(-c2n[nH]c3c2CCCc2ccccc2-3)c1
inactive: dose: 12.5 mg/kg/injection, schedule: Q01DX009 (ip), vehicle: other 107 % of control | dose: 25.0 mg/kg/injection, schedule: Q01DX009 (ip), vehicle: other 100 % of control | [17] 107 % of control | [18] 96 % of control | [19] 105 % of control

O=C1CSC(c2cccs2)N1CCN1C(=O)CSC1c1cccs1 (stereo not drawn)
inactive: [15] 100 % of control | [16] 96 % of control

O=C([O-])CCNC1OC(CO)C(O)C(O)C1O.O=C([O-])CCNC1OC(CO)C(O)C(O)C1O.[Pd+2] (stereo not drawn)
inactive: [1] 99 % of control | [2] 102 % of control | [3] 99 % of control

CCC(C(=O)c1ccccc1)C1(C(=O)OC)NC(=S)NC(=O)C1C#N (stereo not drawn)
inactive: dose: 60.0 mg/kg/injection, schedule: Q01DX005 (ip), vehicle: saline 95 % of control | dose: 120.0 mg/kg/injection, schedule: Q01DX005 (ip), vehicle: saline 95 % of control | dose: 240.0 mg/kg/injection, schedule: Q01DX005 (ip), vehicle: saline 100 % of control

[S]=[W]=[S]
inactive: [9] 98 % of control | [10] 102 % of control | [11] 96 % of control

CC1C(=O)C(C)C(c2ccccc2Cl)OC1c1ccccc1Cl (stereo not drawn)
inactive: [6] 112 % of control | [7] 102 % of control | [8] 96 % of control

CCCCC/C(C=C(C#N)C#N)=C/c1ccccc1
inactive: dose: 25.0 mg/kg/injection, schedule: Q01DX009 (ip), vehicle: saline with Tween-80 103 % of control and 86 % of control | [9] 100 % of control and 123 % of control and 91 % of control | [10] 119 % of control and 92 % of control | [11] 111 % of control

Nc1cc(Cl)ccc1-c1ccccc1
inactive: [20] 95 % of control | [21] 92 % of control

CCCCCCCCCCCCCCCCS(=O)(=O)N/N=C(/c1ccc(OC)c(OC)c1)N1CCCCC1
inactive: [17] 102 % of control | [18] 91 % of control | [19] 93 % of control

NC(=S)n1nc(-c2ccccc2)c(N=Nc2ccc(O)cc2)c1-c1ccccc1
inactive: [12] 100 % of control | [13] 103 % of control | [14] 98 % of control

C[N+]1(C)CC[N+](C)(C)CC1
inactive: dose: 25.0 mg/kg/injection, schedule: Q01DX009 (ip), vehicle: Klucel (hydroxypropylcellulose) (HPC) 103 % of control | dose: 50.0 mg/kg/injection, schedule: Q01DX009 (ip), vehicle: Klucel (hydroxypropylcellulose) (HPC) 103 % of control | [20] 100 % of control | [21] 110 % of control

O=S(O)Cc1ccccc1CSSSCc1ccccc1CS(=O)O
inactive: dose: 25.0 mg/kg/injection, schedule: Q01DX005 (ip), vehicle: saline 114 % of control | [1] 114 % of control | [2] 114 % of control | [3] 112 % of control

Reference: PubChem BioAssay AID330 (DTP/NCI, 2004)
